Experiment [1] relates to fetal rat forearm bones (radius and ulna), bone resorption. The experiment is described as follows: Bone resorption suppressing action (^45 Ca release from cultured fetal rat forearm bones, method of Raisz). In kind it is cell-based, Sprague-Dawley rat. To be noted: 48 h, cultured two days, control = no test compound, mean of five bone fragments, read-out: Bone Resorption Inhibitory Activity [^45 Ca Release Rate (Percent to Control)]; for activity at 10 µM: Concentration of Compound 10 μM; for activity at 10 µg/mL: Concentration of Compound 10 μg/ml. The source says: Specifically, one Sprague-Dawley rat, at 18 days of gestation, was given 50 μCi of ^45 Ca (calcium isotope, in CaCl2 solution) by subcutaneous injection. On the following day, the animal was laparotomized and fetal rats aseptically removed. Both forearm bones (radius and ulna) were cut out from the body of each fetus under an anatomical microscope, and connective tissue and cartilages were removed to the maximum possible extent, to prepare bone culture samples. Each bone fragment was pre-cultured at 37° C. for 24 hours in 0.6 ml of BGJb medium (Fitton-Jackson modification, GIBCO Laboratories, United States) prepared by adding bovine serum albumin (final concentration 2 mg/ml), after which it was transferred to the same medium as above but containing each compound (final concentration 10 μg/ml or 10 μM) and cultured for two more days. ^45 Ca radioactivity in the medium and ^45 Ca radioactivity in the bone were then measured, and the percent ratio of ^45 Ca released from the bone to the medium was calculated using the following equation: [formula]
For control, bone fractions from fetuses of the same litter were cultured for two days in the absence of the test compound. The mean q standard deviation for the values from five bone fragments in each group were calculated, and their percent ratios to the control were calculated.

In a further experiment the target is T1, human cathepsin L (Homo sapiens, UniProt P07711).
T1 construct: made in house; host or cells: mouse myeloma Sp2/0 cells stably transformed with pTBN-HCLneo (Sp-HCL26); purified from serum-free culture supernatant on CM-Sephadex C-50 and Mono S
T1 sequence (P07711 114-333): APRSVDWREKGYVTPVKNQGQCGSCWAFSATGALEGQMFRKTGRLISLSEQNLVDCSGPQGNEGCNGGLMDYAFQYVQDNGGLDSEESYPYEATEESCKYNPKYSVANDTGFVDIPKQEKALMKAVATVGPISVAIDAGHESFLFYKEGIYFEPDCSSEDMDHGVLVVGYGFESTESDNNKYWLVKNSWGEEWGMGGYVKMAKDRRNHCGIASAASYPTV
The experiment in a line: Determination of human cathepsin L inhibitory activity (recombinant enzyme, Z-Phe-Arg-NMec substrate). As to conditions: pH 5.5, 30° C., 10 minutes. The experiment is classed as biochemical. The method, then: This fraction was applied to a Mono S column (HR5/5) of an FPLC system (produced by Pharmacia), followed by column washing and human cathepsin L elution in the same manner as above.
Experimental Example 8: Determination of human cathepsin L inhibitory activity
The recombinant human cathepsin L purified in Experimental Example 7 was diluted with a diluent [0.1% Brij 35 (produced by Sigma Chemical Company)] to a concentration of 1 μg/ml. To 1 μl of this enzyme dilution, 46 μl of the diluent, 2 μl of 0.1M DTT and 25 μl of an activator/buffer (340 mM sodium acetate, 60 mM acetic acid, 4 mM disodium EDTA, pH 5.5) were added. To this mixture were added a 1 μl sample, diluted to 10^-2 M with dimethyl sulfoxide (DMSO), and 25 μl of 20 μM Z-Phe-Arg-NMec (enzyme substrate solution), followed by incubation at 30° C. for 10 minutes, after which 100 μl of a reaction stopper (100 mM sodium monochloroacetate, 30 mM sodium acetate, 70 mM acetic acid, pH 4.3) was added. This reaction was carried out on a 96-well fluoroplate (produced by Labo Systems).
After the reaction was stopped, the fluorescence intensity of free aminomethylcoumarin was determined at a wavelength of 450 nm (excitation wavelength=365 nm), using a fluorometer FCA (produced by Baxter). For a control, 1 μl of sample-free DMSO was added instead; the fluorometric value obtained from this control reaction was taken as 100% activity.

Peptide text beside a SMILES is read from it. * marks the point of attachment. MeOSuc = COC(=O)CCC(=O)*; Cbz = O=C(OCc1ccccc1)*; Boc = CC(C)(C)OC(=O)*; Bz = O=C(c1ccccc1)*

As to `CCCC(CCC)C(=O)N[C@H](C(=O)N[C@H](C=O)Cc1c[nH]c2ccccc12)C(C)C` [Example 135, N-(2-propylpentanoyl)-(L)-valyl-(L)-tryptophanal], in experiment [1], the activity at 10 µM was determined as 45%. In addition, on human cathepsin L, the IC50 amounted to 0.001 µM. Turning to `CC[C@H](C)[C@H](NS(=O)(=O)c1cccc2ccccc12)C(=O)N[C@@H](C)C=O` [Example 153, N-(1-naphthylsulfonyl)-(L)-isoleucylalanal], the activity at 10 µM in experiment [1] came to 74%. Consider `CC[C@H](C)[C@H](NS(=O)(=O)c1cccc2ccccc12)C(=O)N[C@H](C=O)Cc1ccccc1` [Example 154, N-(1-naphthylsulfonyl)-(L)-isoleucyl-(L)-phenylalaninal], for which, at human cathepsin L, the IC50 turned out to be 0.00095 µM.

With `CC(C)C[C@H](NC(=O)c1ccccc1)C(=O)N[C@H](C=O)Cc1c[nH]c2ccccc12` [Example 143], on human cathepsin L, the IC50 stood at 0.0017 µM. On the same count and under the same terms, then `O=C[C@H](Cc1c[nH]c2ccccc12)NC(=O)C(Cc1ccccc1)C(=O)N(Cc1ccccc1)Cc1ccccc1` (stereo partly shown) [Example 190], with 0.055 µM. With `CC[C@H](C)[C@H](NC(=O)OCc1ccccc1)C(=O)N[C@H](CO)Cc1cn(C(C)(C)C)c2ccccc12` [Example 59], the activity at 10 µM in experiment [1] is 67%. Take `C[C@H](NS(=O)(=O)c1cccc2ccccc12)C(=O)N[C@H](C=O)Cc1c[nH]c2ccccc12` [Example 124]: in experiment [1], the activity at 10 µM was found to be 79%.

Take `CC[C@H](C)[C@H](NC(=O)OCCC12CC3CC(CC(C3)C1)C2)C(=O)N[C@H](C(=O)N[C@H](C=O)Cc1c[nH]c2ccccc12)[C@@H](C)CC` [Example 112]: the activity at 10 µg/mL in experiment [1] was determined as 43%. Further, the IC50 at human cathepsin L worked out at 0.38 µM. Take `CC[C@H](C)[C@H](NC(=O)OCc1ccccc1)C(=O)N[C@H](C=O)Cc1c[nH]c2ccccc12` [Example 107]: the IC50 on human cathepsin L was 0.011 µM. Regarding `CC[C@H](C)[C@H](NC(=O)OC(C)(C)C)C(=O)N[C@H](C(=O)N[C@H](C=O)Cc1c[nH]c2ccccc12)[C@@H](C)CC` [Example 109] (Boc-Ile-Ile-Trp-aldehyde), the activity at 10 µg/mL in experiment [1] came to 38%. Further, the IC50 at human cathepsin L came out at 0.01 µM. For `CC[C@H](C)[C@H](NC(=O)CCC(=O)OC)C(=O)N[C@H](C(=O)N[C@H](C=O)Cc1c[nH]c2ccccc12)[C@@H](C)CC` [Example 111] (MeOSuc-Ile-Ile-Trp-aldehyde), the activity at 10 µg/mL in experiment [1] is 32%. Also, the IC50 on human cathepsin L was 0.014 µM.

As for `O=C[C@H](Cc1c[nH]c2ccccc12)NC(=O)[C@H](Cc1ccccc1)NC(=O)c1ccccc1` [Example 128] (Bz-Phe-Trp-aldehyde), the activity at 10 µM in experiment [1] is 73%. The IC50 on human cathepsin L came to 0.019 µM. On to `CC[C@H](C)[C@H](NC(=O)[C@@H](NS(=O)(=O)c1cccc2ccccc12)[C@@H](C)CC)C(=O)N[C@H](C=O)Cc1c[nH]c2ccccc12` [Example 110, N-(1-naphthylsulfonyl)-(L)-isoleucyl-(L)-isoleucyl-(L)-tryptophanal], for which, in experiment [1], the activity at 10 µg/mL was 46%. For the same compound, the IC50 on human cathepsin L was determined as 0.016 µM. As to `Cc1ccc(CC(Cc2ccccc2)C(=O)N[C@H](CO)Cc2c[nH]c3ccccc23)cc1` (stereo partly shown) [Example 84], in experiment [1], the activity at 10 µM stood at 74%.

In the case of `CC[C@H](C)[C@H](NC(=O)OCc1ccccc1)C(=O)N[C@H](C(=O)N[C@H](C=O)Cc1c[nH]c2ccccc12)[C@@H](C)CC` [Example 108, N-(benzyloxycarhonyl)-(L)-isoleucyl-(L)-isoleucyl-(L)-tryptophanal] (Cbz-Ile-Ile-Trp-aldehyde), the activity at 10 µg/mL in experiment [1] was determined as 42%. Moreover, on human cathepsin L, the IC50 is 0.0054 µM. As for `CC[C@H](C)[C@H](NS(=O)(=O)c1cccc2ccccc12)C(=O)N[C@H](C=O)Cc1ccc(O)cc1` [Example 158], the activity at 10 µM in experiment [1] came out at 65%. In the case of `CC(C)[C@H](NC(=O)OCc1ccccc1)C(=O)N[C@H](C=O)Cc1c[nH]c2ccccc12` [Example 132] (Cbz-Val-Trp-aldehyde), the activity at 10 µM in experiment [1] is 74%. For the same compound, the IC50 at human cathepsin L worked out at 0.00099 µM.

In the case of `CC(C)[C@H](NC(=O)c1ccccc1)C(=O)N[C@H](CO)Cc1c[nH]c2ccccc12` [Example 38], the activity at 10 µM in experiment [1] was determined as 76%. Take `O=C[C@H](Cc1c[nH]c2ccccc12)NC(=O)C(Cc1ccccc1)Cc1ccccc1` [Example 122, N-dibenzylacetyl-(L)-tryptophanal]: the activity at 10 µM in experiment [1] came to 73%. For the same compound, the IC50 on human cathepsin L was determined as 0.032 µM. For `O=C(N[C@H](CO)Cc1c[nH]c2ccccc12)C(Cc1ccccc1)Cc1ccccc1` [Example 26, N-dibenzylacetyl-(L)-tryptophanol], in experiment [1], the activity at 10 µM amounted to 79%.

Consider `CC[C@@H](C=O)NC(=O)C(Cc1ccccc1)Cc1ccccc1` [Example 167], for which the IC50 at human cathepsin L amounted to 0.043 µM. On the same count and under the same terms, then `CC[C@H](C)[C@H](NC(=O)OC(C)(C)C)C(=O)N[C@H](C=O)Cc1cn(C)c2ccccc12` [Example 150], with 0.0061 µM. Same read-out and setting: then `CC(C)C[C@H](NS(=O)(=O)c1cccc2ccccc12)C(=O)N[C@@H](Cc1c[nH]c2ccccc12)C(=O)NCC=O` [Example 175], with 0.019 µM.

As for `CC[C@H](C)[C@H](NC(=O)NCCC1CCCCC1)C(=O)N[C@H](C=O)Cc1c[nH]c2ccccc12` [Example 115, N-[(2-cyclohexylethyl)carbamoyl]-(L)-isoleucyl-(L)-tryptophanal], the IC50 at human cathepsin L is 0.048 µM. With `CC[C@H](C)[C@H](NC(=O)[C@@H](NS(=O)(=O)c1cccc2ccccc12)[C@@H](C)CC)C(=O)NC(C=O)Cc1cccc2ccccc12` (stereo partly drawn) [Example 118, N-(1naphthylsulfonyl)-(L)-isoleucyl-(L)-isoleucyl-(DL)-(1-naphthyl)alaninal], the IC50 on human cathepsin L was found to be 0.22 µM. For the compound `O=C[C@H](Cc1c[nH]c2ccccc12)NC(=O)C(Cc1ccccc1)C(=O)NCc1ccccc1` (stereo partly shown) [Example 191], on human cathepsin L, the IC50 is 0.0047 µM. For `CC[C@H](C)[C@H](NC(=O)c1cc(=O)c2ccccc2o1)C(=O)N[C@H](C=O)Cc1c[nH]c2ccccc12` [Example 193], the IC50 at human cathepsin L was 0.0039 µM. As to `CCOP(=O)(Cc1ccc(NC(=O)C(Cc2ccccc2)C(=O)N[C@H](C=O)Cc2c[nH]c3ccccc23)cc1)OCC` (stereo partly shown) [Example 188], the IC50 at human cathepsin L was found to be 0.037 µM. Still for that read-out and setting: to `CCCC(Sc1ccccc1)C(=O)N[C@H](C=O)Cc1c[nH]c2ccccc12` (stereo partly shown) [Example 129] belongs 0.085 µM. `CC[C@H](C)[C@H](NS(=O)(=O)c1cccc2ccccc12)C(=O)N[C@H](CO)Cc1c[nH]c2ccccc12` [Example 3, N-(1-naphthylsulfonyl)-(L)-isoleucyl-(L)-tryptophanol]: the activity at 10 µg/mL in experiment [1] came to 49%. Turning to `CCCC(CCC)C(=O)N[C@@H](CC(C)C)C(=O)N[C@H](C=O)Cc1c[nH]c2ccccc12` [Example 144], in experiment [1], the activity at 10 µM worked out at 60%. In addition, the IC50 on human cathepsin L is 0.0024 µM. With `CC[C@H](C)[C@H](NC(=O)OCc1ccccc1)C(=O)N[C@H](C=O)Cc1ccc(OC(C)C)cc1` [Example 157], in experiment [1], the activity at 10 µM is 72%. For the compound `CC(C)[C@H](NC(=O)c1ccccc1)C(=O)N[C@H](C=O)Cc1c[nH]c2ccccc12` [Example 134] (Bz-Val-Trp-aldehyde), the activity at 10 µM in experiment [1] is 66%.

`CC(C)[C@@H](C=O)NC(=O)C(Cc1ccccc1)Cc1ccccc1` [Example 168]: at human cathepsin L, the IC50 came out at 0.026 µM.

For `CC[C@H](C)[C@H](NS(=O)(=O)c1cccc2ccccc12)C(=O)N[C@H](C=O)Cc1c[nH]c2ccccc12` [Example 103, N-(1-naphthylsulfonyl)-(L)-isoleucyl-(L)-tryptophanal], the activity at 10 µg/mL in experiment [1] was found to be 49%. Turning to `O=C[C@H](Cc1c[nH]c2ccccc12)NC(=O)C(c1ccccc1)c1ccccc1` [Example 192], the IC50 on human cathepsin L came to 0.0042 µM.

In general, IC50 refers to the concentration needed to halve the response being measured.

These data come from patent publication US5955491A, “Method for treating osteoporosis” (Takeda Chemical Industries, Ltd., priority 1993, dated 1999).
